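Grown in 96-well plates, cells were treated for 48 hours with each compound at five concentrations. Insufficient inhibition: endpoint recorded as highest concentration tested. Abbreviation: GI50, concentration required for 50% inhibition of growth.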 Active and inactive are the calls of the source. No stated cut-off is given here; in the data, active = GI50 up to about 1.1 µM and inactive = higher.
Key:
Experiment in all cases: inhibition of tumour cell growth, NCI panel, 48 h
A498 = system: A498
CAKI-1 = system: CAKI-1
COLO 205 = system: COLO 205
DU-145 = system: DU-145
HCC 2998 = system: HCC 2998
HCT-116 = system: HCT-116
Hs-578T = system: Hs-578T
IGROV-1 = system: IGROV-1
KM12 = system: KM12
MDA-MB-435 = system: MDA-MB-435
MOLT-4 = system: MOLT-4
Malme-3M = system: Malme-3M
NCI-H460 = system: NCI-H460
OVCAR-8 = system: OVCAR-8
RXF 393 = system: RXF 393
SK-OV-3 = system: SK-OV-3
SN12C = system: SN12C
SNB-19 = system: SNB-19
SW-620 = system: SW-620
SF-539 = system: SF-539

Measured: GI50

Cc1cn(CC2=NCCN2)c(=O)[nH]c1=O
inactive: A498 > 100 µM | CAKI-1 > 100 µM | COLO 205 > 100 µM | DU-145 > 100 µM | HCC 2998 > 100 µM | HCT-116 > 100 µM | Hs-578T > 100 µM | IGROV-1 > 100 µM | KM12 > 100 µM | MDA-MB-435 > 100 µM | MOLT-4 > 100 µM | Malme-3M > 100 µM | NCI-H460 > 100 µM | OVCAR-8 > 100 µM | RXF 393 > 100 µM | SK-OV-3 > 100 µM | SN12C > 100 µM | SNB-19 > 100 µM | SW-620 > 100 µM

OCCSCC(O)Cn1cnc2c(O)nc(Nc3ccccc3)nc21 (stereo not drawn)
inactive: A498 > 100 µM | CAKI-1 > 100 µM | COLO 205 > 100 µM | DU-145 > 100 µM | HCC 2998 > 100 µM | HCT-116 > 100 µM | Hs-578T > 100 µM | IGROV-1 > 100 µM | KM12 > 100 µM | MDA-MB-435 > 100 µM | MOLT-4 > 100 µM | Malme-3M > 100 µM | NCI-H460 > 100 µM | OVCAR-8 > 100 µM | SF-539 > 100 µM | SK-OV-3 > 100 µM | SN12C > 100 µM | SNB-19 > 100 µM | SW-620 > 100 µM

CN(C)C(=S)C(Cl)(c1ccccc1)c1ccccc1
inactive: A498 > 100 µM | CAKI-1 > 100 µM | COLO 205 85.7 µM | DU-145 40.6 µM | HCC 2998 > 100 µM | HCT-116 38.4 µM | Hs-578T > 100 µM | IGROV-1 > 100 µM | KM12 46.3 µM | MDA-MB-435 37.1 µM | MOLT-4 11.8 µM | Malme-3M > 100 µM | NCI-H460 > 100 µM | OVCAR-8 73.8 µM | SF-539 36.6 µM | SK-OV-3 > 100 µM | SN12C 43.7 µM | SNB-19 > 100 µM | SW-620 34 µM

COc1ccc2c(c1)C(=O)CCc1cc(OC)c(OC)c(OC)c1-2
active: A498 0.0504 µM | CAKI-1 0.127 µM | COLO 205 0.0512 µM | DU-145 0.0335 µM | HCC 2998 0.0412 µM | HCT-116 0.0506 µM | Hs-578T 0.0243 µM | IGROV-1 0.0553 µM | KM12 0.0298 µM | MDA-MB-435 0.0204 µM | MOLT-4 0.0564 µM | Malme-3M 0.0304 µM | NCI-H460 0.0413 µM | OVCAR-8 0.0513 µM | SF-539 < 0.01 µM | SK-OV-3 < 0.01 µM | SN12C 0.0649 µM | SNB-19 0.051 µM | SW-620 0.0716 µM

CCCC/C=C1\CCC(CN2CCCCC2)C1=O (stereo not drawn)
inactive: A498 25.7 µM | CAKI-1 9.48 µM | COLO 205 12 µM | DU-145 > 100 µM | HCC 2998 8.67 µM | HCT-116 17.8 µM | Hs-578T > 100 µM | IGROV-1 19.1 µM | MDA-MB-435 > 100 µM | MOLT-4 8.38 µM | Malme-3M 8.55 µM | NCI-H460 33.6 µM | OVCAR-8 12.8 µM | RXF 393 10.9 µM | SF-539 19 µM | SK-OV-3 > 42.1 µM | SN12C 11.5 µM | SNB-19 31.7 µM | SW-620 7.91 µM

Cc1cn(C2CC(O)C(Cn3nncc3Cn3ccc(=O)[nH]c3=O)O2)c(=O)[nH]c1=O (stereo not drawn)
inactive: A498 > 100 µM | CAKI-1 > 100 µM | COLO 205 > 100 µM | DU-145 > 100 µM | HCC 2998 > 100 µM | HCT-116 > 100 µM | Hs-578T > 100 µM | IGROV-1 > 100 µM | KM12 > 100 µM | MDA-MB-435 > 100 µM | MOLT-4 > 100 µM | Malme-3M > 100 µM | OVCAR-8 > 100 µM | RXF 393 > 100 µM | SF-539 > 100 µM | SK-OV-3 > 100 µM | SN12C > 100 µM | SNB-19 > 100 µM | SW-620 > 100 µM

COc1ccc(-n2c(N)c(C#N)[nH]c2=O)cc1
inactive: A498 > 10 µM | COLO 205 > 10 µM | DU-145 > 10 µM | HCC 2998 > 10 µM | HCT-116 > 10 µM | Hs-578T > 10 µM | IGROV-1 > 10 µM | KM12 > 10 µM | MDA-MB-435 > 10 µM | MOLT-4 > 10 µM | Malme-3M > 10 µM | NCI-H460 > 10 µM | OVCAR-8 > 10 µM | RXF 393 > 10 µM | SF-539 > 10 µM | SK-OV-3 > 10 µM | SN12C > 10 µM | SNB-19 > 10 µM | SW-620 > 10 µM
